Assay results as given in patent US12252524B2, “GIP/GLP1 co-agonist compounds” (Eli Lilly and Company, priority 2018, dated 2025).
Numbered stars: 1 amine (or outer) side, 2 acyl side, 3 side chain; on linkers, the order of the positions; unused ones are H or OH. Square brackets hold non-standard residues; d marks the D form. Side chains are listed from the residue outwards. Peptide text beside a SMILES is read from it. * marks the point of attachment. Ala(1H-tetrazol-5-yl) = N[C@@H](Cc1nnn[nH]1)C(=O)O; C20 diacid = O=C(O)CCCCCCCCCCCCCCCCCCC(=O)*; αMePhe(2-F) = C[C@](N)(Cc1ccccc1F)C(=O)O; γGlu = O=C(O)[C@H](CCC(=O)[*:2])N[*:1]; αMeF = C[C@](N)(Cc1ccccc1)C(=O)O; αMeL = CC(C)C[C@](C)(N)C(=O)O; Orn = NCCC[C@H](N)C(=O)O; AEEA = NCCOCCOCC(=O)O; Aib = CC(C)(N)C(=O)O

Legend:
[1] = molecular target: human GLP-1 receptor (GLP-1R) (Homo sapiens, UniProt P43220); assay: cAMP pharmacological functional assay in presence of casein, hGLP-1R; type: cell-based; settings: HEK293 cells expressing hGLP-1R, 0.1% Casein, geometric mean; read-out: hGLP1R cAMP Rel EC50 nM (SEM, n)
[2] = molecular target: T1, gastric inhibitory peptide receptor (GIPR) (Homo sapiens, UniProt P48546); assay: cAMP pharmacological functional assay in presence of casein, hGIPR; type: cell-based; settings: HEK293 cells expressing hGIPR, 0.1% Casein, geometric mean; read-out: hGIPR cAMP Rel EC50 nM (SEM, n)
T1 sequence (P48546 22-466): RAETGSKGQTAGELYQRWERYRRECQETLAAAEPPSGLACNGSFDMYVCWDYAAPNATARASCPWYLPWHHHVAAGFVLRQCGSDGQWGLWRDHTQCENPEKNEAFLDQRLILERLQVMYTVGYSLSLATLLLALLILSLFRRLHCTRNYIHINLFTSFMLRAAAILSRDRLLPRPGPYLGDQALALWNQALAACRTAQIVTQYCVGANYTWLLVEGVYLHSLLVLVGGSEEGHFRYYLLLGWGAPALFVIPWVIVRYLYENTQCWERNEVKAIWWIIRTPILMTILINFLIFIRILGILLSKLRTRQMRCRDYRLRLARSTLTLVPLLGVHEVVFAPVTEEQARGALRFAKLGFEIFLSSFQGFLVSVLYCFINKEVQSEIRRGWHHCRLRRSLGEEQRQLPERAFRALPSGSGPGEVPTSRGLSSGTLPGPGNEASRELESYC

Chain of human GLP-1 receptor (GLP-1R) (P43220 24-463): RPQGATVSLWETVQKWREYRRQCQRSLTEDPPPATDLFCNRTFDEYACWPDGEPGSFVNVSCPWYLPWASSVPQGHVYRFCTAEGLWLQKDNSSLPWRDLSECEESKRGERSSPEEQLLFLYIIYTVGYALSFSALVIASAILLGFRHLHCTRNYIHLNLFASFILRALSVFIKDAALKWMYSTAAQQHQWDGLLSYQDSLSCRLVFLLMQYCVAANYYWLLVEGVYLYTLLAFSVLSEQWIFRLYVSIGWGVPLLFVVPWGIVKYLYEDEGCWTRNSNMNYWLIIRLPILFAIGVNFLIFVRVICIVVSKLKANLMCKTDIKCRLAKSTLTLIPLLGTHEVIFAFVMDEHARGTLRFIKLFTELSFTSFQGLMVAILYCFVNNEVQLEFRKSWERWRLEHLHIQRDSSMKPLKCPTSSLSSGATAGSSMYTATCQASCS

| SMILES | EC50 [1] [nM] | EC50 [2] [nM] |
| --- | --- | --- |
| CC[C@H](C)[C@H](NC(=O)[C@H](CC(C)C)NC(=O)[C@H](Cc1ccc(O)cc1)NC(=O)[C@@H](CCC(=O)O)NC(=O)[C@@H](NC(=O)[C@H](Cc1ccccc1)NC(=O)[C@H](CCC(=O)O)NC(=O)C(C)(C)NC(=O)[C@H](CCC(N)=O)NC(=O)[C@H](C)NC(=O)[C@H](CCCCN)NC(=O)[C@H](CCCN)NC(=O)[C@H](CC(=O)O)NC(=O)[C@H](CC(C)C)NC(=O)[C@](C)(CC(C)C)NC(=O)[C@@H](NC(=O)[C@H](CO)NC(=O)[C@H](Cc1ccc(O)cc1)NC(=O)[C@H](CC(=O)O)NC(=O)[C@H](CO)NC(=O)[C@@H](NC(=O)[C@](C)(Cc1ccccc1F)NC(=O)[C@@H](NC(=O)CNC(=O)[C@H](CCC(=O)O)NC(=O)C(C)(C)NC(=O)[C@@H](N)Cc1ccc(O)cc1)[C@@H](C)O)[C@@H](C)O)[C@@H](C)CC)[C@@H](C)CC)C(=O)N[C@@H](CCC(=O)O)C(=O)NCC(=O)NCC(=O)N1CCC[C@H]1C(=O)N[C@@H](CO)C(=O)N[C@@H](CO)C(=O)NCC(=O)N[C@@H](C)C(=O)N1CCC[C@H]1C(=O)N1CCC[C@H]1C(=O)N1CCC[C@H]1C(=O)N[C@@H](CO)C(=O)N[C@@H](CS)C(N)=O [Example 282] (H-Y[Aib]EGT[αMePhe(2-F)]TSDYSI[αMeL]LD[Orn]KAQ[Aib]EFI[dE]YLIEGGPSSGAPPPSC-NH2) | 0.247 | 0.323 |
| CC[C@H](C)[C@H](NC(=O)[C@H](CC(C)C)NC(=O)[C@H](Cc1ccc(O)cc1)NC(=O)[C@H](CCC(=O)O)NC(=O)[C@@H](NC(=O)[C@H](Cc1ccccc1)NC(=O)[C@H](C)NC(=O)C(C)(C)NC(=O)[C@H](CCC(N)=O)NC(=O)[C@H](C)NC(=O)[C@H](CCCCNC(=O)COCCOCCNC(=O)COCCOCCNC(=O)CC[C@H](NC(=O)CCCCCCCCCCCCCCCCCCC(=O)O)C(=O)O)NC(=O)[C@H](CCCCN)NC(=O)[C@H](CC(=O)O)NC(=O)[C@H](CC(C)C)NC(=O)[C@H](CC(C)C)NC(=O)[C@@H](NC(=O)[C@H](CO)NC(=O)[C@](C)(Cc1ccccc1)NC(=O)[C@H](CC(=O)O)NC(=O)[C@H](CO)NC(=O)[C@@H](NC(=O)[C@](C)(Cc1ccccc1)NC(=O)[C@@H](NC(=O)CNC(=O)[C@H](CCC(=O)O)NC(=O)C(C)(C)NC(=O)[C@@H](N)Cc1ccc(O)cc1)[C@@H](C)O)[C@@H](C)O)[C@@H](C)CC)[C@@H](C)CC)C(=O)N[C@@H](CCC(=O)O)C(=O)NCC(=O)NCC(=O)N1CCC[C@H]1C(=O)N[C@@H](CO)C(=O)N[C@@H](CO)C(=O)NCC(=O)N[C@@H](C)C(=O)N1CCC[C@H]1C(=O)N1CCC[C@H]1C(=O)N1CCC[C@H]1C(=O)N[C@@H](CO)C(N)=O [Example 131] (H-Y[Aib]EGT[αMeF]TSD[αMeF]SILLDKK([AEEA-AEEA-γGlu-C20 diacid])AQ[Aib]AFIEYLIEGGPSSGAPPPS-NH2) | 0.156 | 0.183 |
| CC[C@H](C)[C@H](NC(=O)[C@H](CCCCN)NC(=O)[C@H](CC(=O)O)NC(=O)[C@H](CC(C)C)NC(=O)[C@](C)(CC(C)C)NC(=O)[C@@H](NC(=O)[C@H](CO)NC(=O)[C@H](CCCCNC(=O)COCCOCCNC(=O)COCCOCCNC(=O)CC[C@H](NC(=O)CCCCCCCCCCCCCCCCCCC(=O)O)C(=O)O)NC(=O)[C@H](CC(=O)O)NC(=O)[C@H](CO)NC(=O)[C@@H](NC(=O)[C@H](Cc1ccccc1)NC(=O)[C@@H](NC(=O)CNC(=O)[C@H](CCC(=O)O)NC(=O)C(C)(C)NC(=O)[C@@H](N)Cc1ccc(O)cc1)[C@@H](C)O)[C@@H](C)O)[C@@H](C)CC)C(=O)N[C@@H](C)C(=O)N[C@@H](CCC(N)=O)C(=O)NC(C)(C)C(=O)N[C@@H](C)C(=O)N[C@@H](Cc1ccccc1)C(=O)N[C@H](C(=O)N[C@@H](CCC(=O)O)C(=O)N[C@@H](Cc1ccc(O)cc1)C(=O)N[C@@H](CC(C)C)C(=O)N[C@H](C(=O)N[C@@H](CCC(=O)O)C(=O)NCC(=O)NCC(N)=O)[C@@H](C)CC)[C@@H](C)CC [Example 96] (H-Y[Aib]EGTFTSDK([AEEA-AEEA-γGlu-C20 diacid])SI[αMeL]LDKIAQ[Aib]AFIEYLIEGG-NH2) | 0.59 | 0.712 |
| CC[C@H](C)[C@H](NC(=O)[C@H](CC(C)C)NC(=O)[C@H](Cc1ccc(O)cc1)NC(=O)[C@H](CCC(=O)O)NC(=O)[C@@H](NC(=O)[C@H](Cc1ccccc1)NC(=O)[C@H](CCC(=O)O)NC(=O)C(C)(C)NC(=O)[C@H](CCC(N)=O)NC(=O)[C@H](C)NC(=O)[C@H](CCCCNC(=O)COCCOCCNC(=O)COCCOCCNC(=O)CC[C@H](NC(=O)CCCCCCCCCCCCCCCCCCC(=O)O)C(=O)O)NC(=O)[C@H](CCC(=O)O)NC(=O)[C@H](CC(=O)O)NC(=O)[C@H](CC(C)C)NC(=O)[C@](C)(CC(C)C)NC(=O)[C@@H](NC(=O)[C@H](CO)NC(=O)[C@H](Cc1nn[nH]n1)NC(=O)[C@H](CC(=O)O)NC(=O)[C@H](CO)NC(=O)[C@@H](NC(=O)[C@](C)(Cc1ccccc1F)NC(=O)[C@@H](NC(=O)CNC(=O)[C@H](CCC(=O)O)NC(=O)C(C)(C)NC(=O)[C@@H](N)Cc1ccc(O)cc1)[C@@H](C)O)[C@@H](C)O)[C@@H](C)CC)[C@@H](C)CC)C(=O)N[C@@H](CCC(=O)O)C(=O)NCC(=O)NCC(=O)N1CCC[C@H]1C(=O)N[C@@H](CO)C(=O)N[C@@H](CO)C(=O)NCC(=O)N[C@@H](C)C(=O)N1CCC[C@H]1C(=O)N1CCC[C@H]1C(=O)N1CCC[C@H]1C(=O)N[C@@H](CO)C(N)=O [Example 155] (H-Y[Aib]EGT[αMePhe(2-F)]TSD[Ala(1H-tetrazol-5-yl)]SI[αMeL]LDEK([AEEA-AEEA-γGlu-C20 diacid])AQ[Aib]EFIEYLIEGGPSSGAPPPS-NH2; N-terminus assumed) | 0.495 | 0.266 |
| CC[C@H](C)[C@H](NC(=O)[C@H](CC(C)C)NC(=O)[C@H](Cc1ccc(O)cc1)NC(=O)[C@@H](CCC(=O)O)NC(=O)[C@@H](NC(=O)[C@H](Cc1ccccc1)NC(=O)[C@@H](NC(=O)C(C)(C)NC(=O)[C@H](CCC(N)=O)NC(=O)[C@H](C)NC(=O)[C@H](CCCCNC(=O)COCCOCCNC(=O)COCCOCCNC(=O)CC[C@H](NC(=O)CCCCCCCCCCCCCCCCCCC(=O)O)C(=O)O)NC(=O)[C@H](CCC(=O)O)NC(=O)[C@H](CC(=O)O)NC(=O)[C@H](CC(C)C)NC(=O)[C@](C)(CC(C)C)NC(=O)[C@@H](NC(=O)[C@H](CO)NC(=O)[C@H](Cc1c[nH]cn1)NC(=O)[C@H](CC(=O)O)NC(=O)[C@H](CO)NC(=O)[C@@H](NC(=O)[C@](C)(Cc1ccccc1F)NC(=O)[C@@H](NC(=O)CNC(=O)[C@H](CCC(=O)O)NC(=O)C(C)(C)NC(=O)[C@@H](N)Cc1ccc(O)cc1)[C@@H](C)O)[C@@H](C)O)[C@@H](C)CC)[C@@H](C)O)[C@@H](C)CC)C(=O)N[C@@H](CCC(=O)O)C(=O)NCC(=O)NCC(=O)N1CCC[C@H]1C(=O)N[C@@H](CO)C(=O)N[C@@H](CO)C(=O)NCC(N)=O [Example 167] (H-Y[Aib]EGT[αMePhe(2-F)]TSDHSI[αMeL]LDEK([AEEA-AEEA-γGlu-C20 diacid])AQ[Aib]TFI[dE]YLIEGGPSSG-NH2) | 1.2 | 0.617 |
| CC[C@H](C)[C@H](NC(=O)[C@H](CC(C)C)NC(=O)[C@H](Cc1ccc(O)cc1)NC(=O)[C@H](CCC(=O)O)NC(=O)[C@@H](NC(=O)[C@H](Cc1ccccc1)NC(=O)[C@H](C)NC(=O)C(C)(C)NC(=O)[C@H](CCC(N)=O)NC(=O)[C@H](C)NC(=O)[C@H](CCCCNC(=O)COCCOCCNC(=O)COCCOCCNC(=O)CC[C@H](NC(=O)CCCCCCCCCCCCCCCCCCC(=O)O)C(=O)O)NC(=O)[C@H](CCC(=O)O)NC(=O)[C@H](CC(=O)O)NC(=O)[C@H](CC(C)C)NC(=O)C(C)(C)NC(=O)[C@@H](NC(=O)[C@H](CO)NC(=O)[C@H](Cc1ccc(O)cc1)NC(=O)[C@H](CC(=O)O)NC(=O)[C@H](CO)NC(=O)[C@@H](NC(=O)[C@](C)(Cc1ccccc1)NC(=O)[C@@H](NC(=O)CNC(=O)[C@H](CCC(=O)O)NC(=O)C(C)(C)NC(=O)[C@@H](N)Cc1ccc(O)cc1)[C@@H](C)O)[C@@H](C)O)[C@@H](C)CC)[C@@H](C)CC)C(=O)N[C@@H](CCC(=O)O)C(=O)NCC(=O)NCC(N)=O [Example 102] (H-Y[Aib]EGT[αMeF]TSDYSI[Aib]LDEK([AEEA-AEEA-γGlu-C20 diacid])AQ[Aib]AFIEYLIEGG-NH2) | 0.0628 | 0.178 |
| CC[C@H](C)[C@H](NC(=O)[C@H](CC(C)C)NC(=O)[C@H](Cc1ccc(O)cc1)NC(=O)[C@H](CCC(=O)O)NC(=O)[C@@H](NC(=O)[C@H](Cc1ccccc1)NC(=O)[C@H](C)NC(=O)C(C)(C)NC(=O)[C@H](CCC(N)=O)NC(=O)[C@H](C)NC(=O)[C@H](CCCCNC(=O)COCCOCCNC(=O)COCCOCCNC(=O)CC[C@H](NC(=O)CCCCCCCCCCCCCCCCCCC(=O)O)C(=O)O)NC(=O)[C@H](CCCCN)NC(=O)[C@H](CC(=O)O)NC(=O)[C@H](CC(C)C)NC(=O)[C@H](CC(C)C)NC(=O)[C@@H](NC(=O)[C@H](CO)NC(=O)[C@H](Cc1c[nH]cn1)NC(=O)[C@H](CC(=O)O)NC(=O)[C@H](CO)NC(=O)[C@@H](NC(=O)[C@H](Cc1ccccc1)NC(=O)[C@@H](NC(=O)CNC(=O)[C@H](CCC(=O)O)NC(=O)C(C)(C)NC(=O)[C@@H](N)Cc1ccc(O)cc1)[C@@H](C)O)[C@@H](C)O)[C@@H](C)CC)[C@@H](C)CC)C(=O)N[C@@H](CCC(=O)O)C(=O)NCC(=O)NCC(=O)N1CCC[C@H]1C(=O)N[C@@H](CO)C(=O)N[C@@H](CO)C(=O)NCC(=O)N[C@@H](C)C(=O)N1CCC[C@H]1C(=O)N1CCC[C@H]1C(=O)N1CCC[C@H]1C(=O)N[C@@H](CO)C(N)=O [Example 260] (H-Y[Aib]EGTFTSDHSILLDKK([AEEA-AEEA-γGlu-C20 diacid])AQ[Aib]AFIEYLIEGGPSSGAPPPS-NH2; N-terminus assumed) | 0.408 | 0.617 |
